In patent publication US20220273702A1, “HYDROGEN SULFIDE AND NITRIC OXIDE THERAPY FOR COVID-19 INFECTION” (Board of Supervisors of Louisiana State University and …, priority 2021, published 2022):

Columns and labels:
sulfide = assay: Single COVID-19 case study: plasma sulfide (monobromobimane method); format: in vivo, human; details: single COVID-19 subject, 14 days post-treatment
C-reactive protein (CRP) = assay: Single COVID-19 case study: CRP levels; details: single COVID-19 subject, following remdesivir for 5 days; 1.35 and 1.77 mg/dL during infection; normal range 0.3-1.0 mg/dL
Total NO = assay: Single COVID-19 case study: plasma total NO (ozone-based chemiluminescence); details: single COVID-19 subject, 280 nM during infection, 400 nM baseline
p-eNOS = format: cell-based
CSE = format: cell-based

| Structure (SMILES) | sulfide level (sulfide) [µM] | CRP level (C-reactive protein (CRP)) [mg/dL] | Total NO level (Total NO; 5 days post-treatment) [nM] | Total NO level (Total NO; 14 days post-treatment) [nM] | restoration of p-eNOS protein expression (p-eNOS) | restoration of CSE protein expression (CSE) |
| --- | --- | --- | --- | --- | --- | --- |
| CCC(CC)COC(=O)[C@H](C)N[P@](=O)(OC[C@H]1O[C@@](C#N)(c2ccc3c(N)ncnn23)[C@H](O)[C@@H]1O)Oc1ccccc1 [remdesivir] | 1.447 | 0.78 | 200 | 280 | – | – |
| C=CCSSSCC=C [DATS, diallyl trisulfide] | – | – | – | – | two-fold | two-fold |
